Measured values: ChEMBL document CHEMBL1201862, “PubChem BioAssay data set” (2004)
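Briefly, cells in 96-well plates were exposed to five compound concentrations for 48 h, and endpoints were estimated by linear interpolation. The concentration for 50% growth inhibition is given as GI50.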 Activity calls are given as the source filed them. Rule as the data show it: active = GI50 up to about 1.1 µM and inactive = higher.

What was measured:
Experiment in all cases: NCI tumour cell line growth inhibition, 48 h
[1] = tested on: KM12
[2] = tested on: K562
[3] = tested on: LOX IMVI
[4] = tested on: SK-MEL-28
[5] = tested on: SNB-19
[6] = tested on: RPMI-8226
[7] = tested on: SK-MEL-2
[8] = tested on: HCT-15
[9] = tested on: Hs-578T
[10] = tested on: MOLT-4
[11] = tested on: SN12C
[12] = tested on: OVCAR-3
[13] = tested on: NCI-H460
[14] = tested on: TK-10
[15] = tested on: HOP-62
[16] = tested on: UACC-257
[17] = tested on: BT-549

Row | Compound | GI50 [1] | GI50 [2] | GI50 [3] | GI50 [4] | GI50 [5] | GI50 [6] | GI50 [7] | GI50 [8] | GI50 [9] | GI50 [10] | GI50 [11] | GI50 [12] | GI50 [13] | GI50 [14] | GI50 [15] | GI50 [16] | GI50 [17]
1 | O=c1cc(-c2ccccc2)nc2[nH]ccn12 | > 10 µM (inactive) | > 10 µM (inactive) | > 10 µM (inactive) | > 10 µM (inactive) | > 10 µM (inactive) | > 10 µM (inactive) | > 10 µM (inactive) | > 10 µM | > 10 µM (inactive) | > 10 µM (inactive) | > 10 µM (inactive) | > 10 µM (inactive) | > 10 µM (inactive) | > 10 µM (inactive) | > 10 µM (inactive) |  | 
2 | N#Cc1ccsc1Nc1ccccc1[N+](=O)[O-] | > 100 µM (inactive) | > 100 µM (inactive) |  | > 100 µM (inactive) | 52.2 µM (inactive) | > 100 µM (inactive) |  | > 100 µM |  | > 100 µM (inactive) | > 100 µM (inactive) | > 100 µM (inactive) | > 100 µM (inactive) |  | 38.1 µM (inactive) | > 100 µM (inactive) | 38.5 µM (inactive)
3 | O=C(Nc1ccc(F)cc1)c1cc2c(cc1Cl)Sc1nccn1S2(=O)=O | > 100 µM (inactive) | > 100 µM (inactive) | > 100 µM (inactive) | 88.5 µM (inactive) | 40.1 µM (inactive) |  | > 100 µM (inactive) | 81.7 µM | 30.8 µM (inactive) | > 100 µM (inactive) | 51.2 µM (inactive) | 84.5 µM (inactive) | 33.5 µM (inactive) |  | 34.8 µM (inactive) |  | 
4 | COc1ccc2c(c1)CCCN1Cc3cc(OC)c(OC)cc3CC21 (configuration not stated) | > 100 µM (inactive) | 80.7 µM (inactive) | 44.8 µM (inactive) | > 100 µM (inactive) | > 100 µM (inactive) |  |  | > 100 µM | > 100 µM (inactive) | > 100 µM (inactive) | 89.1 µM (inactive) | 82.2 µM (inactive) | 50.2 µM (inactive) | > 100 µM (inactive) | 60.4 µM (inactive) | 56.1 µM (inactive) | > 100 µM (inactive)
5 | O=C(c1ccc2ccccc2c1O)N1CCCCC1 | > 100 µM (inactive) | 28.4 µM (inactive) | 90.4 µM (inactive) | > 100 µM (inactive) | > 100 µM (inactive) | 27.4 µM (inactive) | > 100 µM (inactive) | > 100 µM | > 100 µM (inactive) | 23.2 µM (inactive) |  |  | 80.7 µM (inactive) | > 100 µM (inactive) | > 100 µM (inactive) | > 100 µM (inactive) | 
6 | O=C1CCCSC(=O)N1Cc1ccccc1 | > 100 µM (inactive) |  | > 100 µM (inactive) | > 100 µM (inactive) | > 100 µM (inactive) |  | > 100 µM (inactive) | > 100 µM | > 100 µM (inactive) | > 100 µM (inactive) | > 100 µM (inactive) | > 100 µM (inactive) | > 100 µM (inactive) | > 100 µM (inactive) | > 100 µM (inactive) | > 100 µM (inactive) | 
7 | C/C(Cl)=N\OC(=O)Nc1ccccc1C(F)(F)F | > 100 µM (inactive) | 19 µM (inactive) | 14.9 µM (inactive) | 17.8 µM (inactive) | > 100 µM (inactive) | 21 µM (inactive) | > 100 µM (inactive) | > 100 µM | > 100 µM (inactive) | 18.5 µM (inactive) | > 100 µM (inactive) | 15.8 µM (inactive) | > 100 µM (inactive) | 15.4 µM (inactive) |  | > 100 µM (inactive) | 
8 | O=C(C/C=C/c1ccccc1)c1ccccc1 | 11.1 µM (inactive) |  | 12 µM (inactive) | 27.2 µM (inactive) |  | 28.2 µM (inactive) |  | 18.8 µM | 21.8 µM (inactive) | 20.8 µM (inactive) | 24.3 µM (inactive) | 41.6 µM (inactive) | 19.9 µM (inactive) | 23.2 µM (inactive) | 26.9 µM (inactive) | 21.9 µM (inactive) | 
9 | O=C1c2cc3c(cc2CC12Cc1cc4c(cc1C2)CCC4)CCC3 | > 100 µM (inactive) | 27 µM (inactive) | > 100 µM (inactive) | > 100 µM (inactive) | > 100 µM (inactive) | > 100 µM (inactive) | > 100 µM (inactive) | > 100 µM | > 100 µM (inactive) | 49 µM (inactive) | > 100 µM (inactive) | > 100 µM (inactive) | > 100 µM (inactive) | > 100 µM (inactive) | > 100 µM (inactive) | > 100 µM (inactive) | 
10 | Cc1cc2c(cc1C(=O)CCC(=O)O)CC1(C2)Cc2cc(C)c(C(=O)CCC(=O)O)cc2C1 | > 100 µM (inactive) | > 100 µM (inactive) | > 100 µM (inactive) | > 100 µM (inactive) | > 100 µM (inactive) | > 100 µM (inactive) | > 100 µM (inactive) | > 100 µM | > 100 µM (inactive) | > 100 µM (inactive) | > 100 µM (inactive) | > 100 µM (inactive) | > 100 µM (inactive) | > 100 µM (inactive) | > 100 µM (inactive) | > 100 µM (inactive) | 
11 | Nc1ccc(C2NC(=O)Cc3c2ccc2ccccc32)cc1 (configuration not stated) | > 100 µM (inactive) | > 100 µM (inactive) | > 100 µM (inactive) | > 100 µM (inactive) | > 100 µM (inactive) | > 100 µM (inactive) | > 100 µM (inactive) | 84.1 µM | 46.5 µM (inactive) | > 100 µM (inactive) |  | 26.1 µM (inactive) | 71.1 µM (inactive) | > 100 µM (inactive) | 56.2 µM (inactive) | > 100 µM (inactive) | 
12 | CC(=O)O/N=C/c1c2ccccc2cc2ccccc12 | 61.8 µM (inactive) | 85.7 µM (inactive) | > 100 µM (inactive) | 89.3 µM (inactive) | 50.5 µM (inactive) | 51.6 µM (inactive) |  | 56.1 µM | 67.1 µM (inactive) | > 100 µM (inactive) | 65.3 µM (inactive) | > 100 µM (inactive) | 51.8 µM (inactive) | 83 µM (inactive) | 30 µM (inactive) | > 100 µM (inactive) | 
13 | CSc1nc(NCc2ccccc2)c2cnn(COCCO)c2n1 | 80 µM (inactive) | 40.1 µM (inactive) | 38.6 µM (inactive) |  |  | 38.5 µM (inactive) | 43.7 µM (inactive) |  |  | 26.3 µM (inactive) | 75 µM (inactive) | 57.8 µM (inactive) | 39.3 µM (inactive) | 61.9 µM (inactive) | > 100 µM (inactive) | 20.3 µM (inactive) | 35.7 µM (inactive)
14 | COC(=O)C1CCCN1C(=O)OC(C)(C)C (configuration not stated) | > 100 µM (inactive) | > 100 µM (inactive) | > 100 µM (inactive) | > 100 µM (inactive) | > 100 µM (inactive) |  | > 100 µM (inactive) | > 100 µM |  | 23.3 µM (inactive) | > 100 µM (inactive) | > 100 µM (inactive) | > 100 µM (inactive) | > 100 µM (inactive) | > 100 µM (inactive) | > 100 µM (inactive) | > 100 µM (inactive)
15 | CN(NC(=O)/C(=C/c1ccc(Cl)cc1)NC(=O)c1ccccc1)c1cn[nH]c(=O)c1Cl | 55.1 µM (inactive) | > 100 µM (inactive) | 62.7 µM (inactive) | > 100 µM (inactive) | > 100 µM (inactive) | 17.4 µM (inactive) | > 100 µM (inactive) | > 100 µM | > 100 µM (inactive) | 19.9 µM (inactive) | > 100 µM (inactive) | 87.1 µM (inactive) | > 100 µM (inactive) | > 100 µM (inactive) | 47 µM (inactive) | > 100 µM (inactive) | 
16 | COc1ccc(/C=C2/SC(c3c(O)ccc4ccccc34)N(NC(=O)CCCCCCCCC(=O)NN3C(=O)/C(=C\c4ccc(OC)c(OC)c4)SC3c3c(O)ccc4ccccc34)C2=O)cc1OC (configuration not stated) | 5.16 µM (inactive) | 1.2 µM (inactive) | 0.394 µM (active) | 2.98 µM (inactive) | 9.2 µM (inactive) | 0.995 µM (active) | 1.08 µM (active) | 0.871 µM |  | 0.176 µM (active) | 3.94 µM (inactive) | 0.33 µM (active) | 0.649 µM (active) | 10.4 µM (inactive) | 0.65 µM (active) | 2.37 µM (inactive) | 
17 | C=C(Br)C(C)(Cl)CCC(Br)C(C)(C)Cl (configuration not stated) | 34.2 µM (inactive) | 46.3 µM (inactive) | 17.6 µM (inactive) | > 100 µM (inactive) | > 100 µM (inactive) |  |  | 43 µM | 89.7 µM (inactive) | 32.3 µM (inactive) | 40 µM (inactive) | 20 µM (inactive) | > 100 µM (inactive) | > 100 µM (inactive) | 41.2 µM (inactive) | 28.9 µM (inactive) | > 100 µM (inactive)
18 | Cc1nc(C)c(C(=O)NNC(=O)C[N+](C)(C)C)cc1C(=O)NNC(=O)C[N+](C)(C)C | > 100 µM (inactive) |  | > 100 µM (inactive) | > 100 µM (inactive) | > 100 µM (inactive) |  | > 100 µM (inactive) | > 100 µM |  |  | > 100 µM (inactive) | > 100 µM (inactive) | > 100 µM (inactive) | > 100 µM (inactive) | > 100 µM (inactive) | > 100 µM (inactive) | > 100 µM (inactive)
19 | CCC(C)[C@H]1C(=O)N=C(N)N1C(=O)OCc1ccccc1 (some centres not stated) | > 100 µM (inactive) | > 100 µM (inactive) | > 100 µM (inactive) | > 100 µM (inactive) | > 100 µM (inactive) | > 100 µM (inactive) | > 100 µM (inactive) | > 100 µM |  | > 100 µM (inactive) | > 100 µM (inactive) | > 100 µM (inactive) | > 100 µM (inactive) | > 100 µM (inactive) | > 100 µM (inactive) | > 100 µM (inactive) | > 100 µM (inactive)
